The values that follow are results of earlier work, collected in patent publication US6555140B1, “Composition and method for enhancing male fertility and libido” (priority 1999, dated 2003).

The structures appear in SMILES notation.

The conditions of data set [1]: for share of the ingested amount metabolically degraded: transported from inside the intestine into the blood stream.
The conditions of data set [2]: in water.

As for `NCCCCNCCCN` [Spermidine Free Base, Spermidine], in data set [1], the “share of what is ingested metabolically available” value is “about 70%” and the “share of the ingested amount metabolically degraded” value is “about 30%”. Besides, the Solubility result in data set [2] was “Soluble in water up to 50 mg/ml”.

In the case of `NCCCNCCCCNCCCN` [Spermine Free Base, Spermine], in data set [1], the “share of what is ingested metabolically available” value is listed as “about 70%” and the “share of the ingested amount metabolically degraded” value is “about 30%”. For the same molecule, the Solubility entry in data set [2] is on record as “Soluble in water up to 50 mg/ml”.
